Laboratory results taken from paper PMC6222509, “Dibasic Derivatives of Phenylcarbamic Acid against Mycobacterial Strains: Old Drugs and New Tricks?” (Molecules : A Journal of Synthetic Chemistry and Natural …, 2018).
Converted amounts (≈) assume the structure as drawn. Read-outs that look alike come from different tables or passages of the source.

Columns and labels:
[1] = test system: Mycobacterium tuberculosis CNCTC My 331/88 (identical with H37Rv and ATCC 2794; MTv H37Rv); experiment: in vitro antimycobacterial MIC, dilution micromethod in Šula's semisynthetic medium; format: cell-based
[2] = test system: M. avium CNCTC My 330/80 (identical with ATCC 25291; MA 330/80); experiment: as above; format: cell-based, Mycobacterium avium
[3] = test system: M. smegmatis ATCC 700084 (MS); experiment: in vitro antimycobacterial MIC, broth dilution micromethod in Middlebrook 7H9; format: cell-based, Mycobacterium smegmatis; settings: Mycolicibacterium smegmatis, ATCC700084, 72 h
[4] = surface tension, drop count method, Traube stalagmometer; format: physicochemical; settings: aqueous solution c = 2.0 × 10^−3 M, 21 °C; water γ = 0.07259 N/m
Description: Surface tension (relative surface activity; γ) of aqueous solutions of the compounds 1a–p (c = 2.0 × 10^−3 M) was determined by a drop count technique using a Traube stalagmometer. All evaluated substances were able to decrease surface tension of water (γ = 0.07259 N/m) at 21 °C.
Surface tension (relative surface activity; γ) of the derivatives 1a–p was determined by a drop count method using a glassy Traube stalagmometer (Kavalier Glass, Prague, Czech Republic). Number of drops of compounds’ and reference solutions were counted between upper and lower marks of the stalagmometer. Aqueous solutions of the molecules 1a–p were prepared with distilled, deionized water (c = 2.0 × 10^−3 M). […] The drops were allowed to form at constant temperature 21 °C. The experimental procedure was described in a paper. Current measurements were done in six replicates and average γ values (in N/m units) were reported (Table 1).

[5] = lipophilicity by isocratic RP-HPLC (log k, k, log kw, S); format: physicochemical; settings: for log kw: extrapolated to 100% water from log k versus ϕM; for S (slope): slope of log k versus ϕM regression
From the text: Octadecyl-functionalized silica gel was currently used as a stationary phase (SPh) and a […] of two solvents at different volume ratios modified retention properties of the SPh. Liquid binary mixtures of methanol (MeOH) with water were employed as mobile phases (MPhs) in the isocratic RP-HPLC. The MeOH modifier was preferred because of similarity of both observed and extrapolated lipophilicity parameters with the ones determined in the octan-1-ol/water partition system, considering also sensitivity to H-bond donor properties of investigated compounds [41].
The modifier was applied in different volume concentrations, which varied from […] (v/v) with 5% increments. This interval was chosen due to very high lipophilicity of investigated salts. Practically, lower volume concentration of MeOH, i.e., less than 85% (v/v) in used MPhs, caused uncertainty of retention times (tr) due to notable peaks broadening, especially within subsets 1i–l and 1m–p. […] The highest tr parameters were found for the molecules 1k (tr = 47.108 min) and 1l (tr = 70.012 min) in the MPh containing 85% proportion (v/v) of MeOH (Table 2).
According to the authors’ opinions based on systematic scientific literature survey, a current research paper was the first, which aimed the log kw parameters of 2-/3-alkoxyphenylcarbamic acid derivatives containing two centers of protonation. The log kw values were extrapolated from intercepts of a relationship between log k and volume fraction of the MPh modifier (ϕM) using the Snyder–Soczewiński linear solvent strength model. The relationship was justified by R > 0.9900, Adj. R^2 > 0.9750 as well as F > 180.00 for calculation of particular log kw parameters (Table 3).
The HPLC separation module Waters e2695 equipped with a Waters 2996 PDA Detector (Waters Corp., Milford, MA, USA) and chromatographic column Symmetry C18 × 5 μm, 4.6 × 250 mm, Part No. W21751W016 (Waters Corp.) were used for estimation of lipophilic properties of the compounds 1a–p at 21 °C.
Isocratic elution was carried out using mobile phases consisting of methanol p.a. (MeOH; Honeywell, Paris, France) and purified water in various volume ratios (80:20, 85:15, 90:10, 95:5 (v/v) and pure MeOH, respectively). Distilled water (CentralChem, Bratislava, Slovak Republic) was purified by the Aquinity2 P10 ultra-pure water system for production of ultra-pure water with an integrated 10 L permeate tank (membraPure, Hennigsdorf, Germany).
Total flow of the column was 1.0 mL/min, injection volume was 4 μL and column temperature was set to 40 °C. The detection wavelengths varying from 236 nm to 238 nm were chosen for current experimental procedures.
Lipophilicity of the compounds 1a–p was determined by reversed-phase high-performance liquid chromatography (RP-HPLC). Methanol (MeOH)/water mobile phases with varying volume ratio of the organic modifier and water (80:20, 85:15, 90:10, 95:5 (v/v) and pure MeOH, respectively) were chosen.
A methanolic solution of potassium iodine was used for dead time (td) determination. Retention factors (capacity factors; k) were calculated according to Equation (17):k = (tr− td)/td(17) where tr was retention time of a solute (in min), the td parameter denoted dead time of potassium iodine, an unretained analyte (in min).
The observed retention (tr) and dead (td) times were means of three independent determinations. Average td values of potassium iodine in used MPhs were as follows: 2.237 min (MeOH/water ratio (v/v) was 80:20), 2.245 min (85:15), 2.245 min (90:10), 2.228 min (95:5) and 2.210 min (pure MeOH), respectively. […]

[6] = Mycobacterium tuberculosis, 336 h, 14-day cultivation, read-out: MIC MTv H37Rv 14-d
[7] = Mycobacterium tuberculosis, 504 h, 21-day cultivation, read-out: MIC MTv H37Rv 21-d
[8] = read-out: MIC MS 3-d, 3-day cultivation, 37 °C
[9] = mobile phase MeOH/water 80:20 (v/v)
[10] = mobile phase MeOH/water 85:15 (v/v)
[11] = mobile phase MeOH/water 90:10 (v/v)
[12] = mobile phase MeOH/water 95:5 (v/v)
[13] = 21-day cultivation, read-out: MIC MA 330/80 21-d
[14] = Mycobacterium avium, ATCC25291, 336 h, 14-day cultivation, read-out: MIC MA 330/80 14-d
[15] = 3-day cultivation, 37 °C, read-out: MIC MS 3-d
[16] = Mycobacterium avium, ATCC25291, 504 h, 21-day cultivation, read-out: MIC MA 330/80 21-d

CCCCCCCOc1ccccc1NC(=O)OC(CN(CCC)CCC)CN1CCCC1.Cl.Cl (stereo not shown) [1d, 1-[2-[({[2-(heptyl-oxy)phenyl]amino}carbonyl)oxy]-3-(dipropylammonio)propyl]pyrrolidinium dichloride]
MIC [1, 6]: 8 µM | MIC [1, 7]: 8 µM | MIC ([2]; Mycobacterium avium, ATCC25291, 336 h, read-out: MIC MA 330/80 14-d): 32 µM | MIC ([2]; Mycobacterium avium, ATCC25291, 504 h, read-out: MIC MA 330/80 21-d): 32 µM | MIC [3, 8]: 24.9 µM | surface tension γ (relative surface activity) [4]: 0.05985 N/m | log kw [5]: 4.9487 | k (retention factor) [5, 9]: 12.8588 | log k [5, 9]: 1.1092 | k (retention factor) [5, 10]: 7.7304 | log k [5, 10]: 0.8882 | k (retention factor) [5, 11]: 5.0373 | log k [5, 11]: 0.7022 | k (retention factor) [5, 12]: 2.5421 | log k [5, 12]: 0.4052 | k (retention factor) ([5]; mobile phase pure MeOH): 1.4365 | log k ([5]; mobile phase pure MeOH): 0.1573 | S (slope) [5]: 4.7736

CCCCCCCOc1cccc(NC(=O)OC(CN(CCC)CCC)CN2CCCCCC2)c1.O=C(O)C(=O)O (stereo not shown) [1l, 1-[2-[({[3-(hept-yloxy)phenyl]amino}carbonyl)oxy]-3-(dipropylammonio)propyl]azepanium oxalate]
MIC [1, 6]: 4 µM | MIC [1, 7]: 8 µM | MIC [2, 13]: 62.5 µM | MIC [2, 14]: 32 µM | MIC [3, 15]: 382 µM | surface tension γ (relative surface activity) [4]: 0.05853 N/m | log kw [5]: 5.8966 | k (retention factor) [5, 9]: 30.4159 | log k [5, 9]: 1.4831 | k (retention factor) [5, 10]: 16.4135 | log k [5, 10]: 1.2152 | k (retention factor) [5, 11]: 9.1601 | log k [5, 11]: 0.9619 | k (retention factor) [5, 12]: 4.2374 | log k [5, 12]: 0.6271 | k (retention factor) ([5]; mobile phase pure MeOH): 2.5096 | log k ([5]; mobile phase pure MeOH): 0.3996 | S (slope) [5]: 5.5102

CCCCCCCOc1cccc(NC(=O)OC(CN(CCC)CCC)CN2CCCCCC2)c1.Cl.Cl (stereo not shown) [1p, 1-[2-[({[3-(heptyloxy)phenyl]amino}carbonyl)-oxy]-3-(dipropylammonio)propyl]azepanium dichloride]
MIC ([1]; 14-day cultivation, read-out: MIC MTv H37Rv 14-d): 4 µM | MIC ([1]; 21-day cultivation, read-out: MIC MTv H37Rv 21-d): 8 µM | MIC ([2]; 14-day cultivation, read-out: MIC MA 330/80 14-d): 16 µM | MIC [2, 13]: 16 µM | MIC [3, 8]: 7.1 µM | surface tension γ (relative surface activity) [4]: 0.05692 N/m | log kw [5]: 6.1749 | k (retention factor) [5, 9]: 14.0734 | log k [5, 9]: 1.1484 | k (retention factor) [5, 10]: 6.6298 | log k [5, 10]: 0.8215 | k (retention factor) [5, 11]: 4.0476 | log k [5, 11]: 0.6072 | k (retention factor) [5, 12]: 1.6036 | log k [5, 12]: 0.2051 | k (retention factor) ([5]; mobile phase pure MeOH): 0.7759 | log k ([5]; mobile phase pure MeOH): −0.1102 | S (slope) [5]: 6.2672

CCCCOc1ccccc1NC(=O)OC(CN(CCC)CCC)CN1CCCCCC1 (stereo not shown) [1i]
MIC [1, 6]: 16 µM (≈ 7.16 µg/mL) | MIC [1, 7]: 32 µM (≈ 14.3 µg/mL) | MIC [2, 14]: 62.5 µM (≈ 28 µg/mL) | MIC [2, 16]: 125 µM (≈ 56 µg/mL) | MIC [3, 8]: 203 µM (≈ 90.9 µg/mL) | surface tension γ (relative surface activity) [4]: 0.06302 N/m | log kw [5]: 4.4679 | k (retention factor) [5, 9]: 9.7297 | log k [5, 9]: 0.9881 | k (retention factor) [5, 10]: 6.5358 | log k [5, 10]: 0.8153 | k (retention factor) [5, 11]: 4.2073 | log k [5, 11]: 0.6240 | k (retention factor) [5, 12]: 2.4854 | log k [5, 12]: 0.3954 | k (retention factor) ([5]; mobile phase pure MeOH): 1.3198 | log k ([5]; mobile phase pure MeOH): 0.1205 | S (slope) [5]: 4.3102

CCCCCCOc1cccc(NC(=O)OC(CN(CCC)CCC)CN2CCCC2)c1 (stereo not shown) [1g]
MIC [1, 6]: 8 µM (≈ 3.58 µg/mL) | MIC [1, 7]: 16 µM (≈ 7.16 µg/mL) | MIC [2, 14]: 16 µM (≈ 7.16 µg/mL) | MIC [2, 16]: 16 µM (≈ 7.16 µg/mL) | MIC ([2]; Mycobacterium avium, ATCC25291, cultivation time not given, read-out: MIC MA 330/80): 16 µM (≈ 7.16 µg/mL) | MIC [3, 15]: 15.4 µM (≈ 6.89 µg/mL) | surface tension γ (relative surface activity) [4]: 0.06105 N/m | log kw [5]: 4.9446 | k (retention factor) [5, 9]: 6.6896 | log k [5, 9]: 0.8254 | k (retention factor) [5, 10]: 4.0776 | log k [5, 10]: 0.6104 | k (retention factor) [5, 11]: 2.3329 | log k [5, 11]: 0.3679 | k (retention factor) [5, 12]: 1.3128 | log k [5, 12]: 0.1182 | k (retention factor) ([5]; mobile phase pure MeOH): 0.6213 | log k ([5]; mobile phase pure MeOH): −0.2067 | S (slope) [5]: 5.1128

CCCCCOc1ccccc1NC(=O)OC(CN(CCC)CCC)CN1CCCC1 (stereo not shown) [1b]
MIC [1, 6]: 16 µM (≈ 6.94 µg/mL) | MIC [1, 7]: 32 µM (≈ 13.9 µg/mL) | MIC [2, 14]: 62.5 µM (≈ 27.1 µg/mL) | MIC [2, 16]: 125 µM (≈ 54.2 µg/mL) | MIC [3, 15]: 104 µM (≈ 45.1 µg/mL) | surface tension γ (relative surface activity) [4]: 0.06366 N/m | log kw [5]: 4.0454 | k (retention factor) [5, 9]: 6.6904 | log k [5, 9]: 0.8254 | k (retention factor) [5, 10]: 4.6302 | log k [5, 10]: 0.6656 | k (retention factor) [5, 11]: 3.2092 | log k [5, 11]: 0.5064 | k (retention factor) [5, 12]: 1.9235 | log k [5, 12]: 0.2841 | k (retention factor) ([5]; mobile phase pure MeOH): 1.0479 | log k ([5]; mobile phase pure MeOH): 0.0203 | S (slope) [5]: 3.9834
